As a reminder, the MIC80 is the lowest concentration that inhibits either 80% of growth or 80% of the strains tested, depending on the study. Low readings indicate greater potency, high ones weaker potency.

From ChEMBL document CHEMBL3286225, “Novel carboline derivatives as potent antifungal lead compounds: design, synthesis, and biological evaluation” (ACS Med Chem Lett, 2014) come the findings set out here.

Molecules are shown by their SMILES. In brackets after ≈: the same amount, converted by molar mass. Some results are limits rather than exact numbers.

Holding throughout (format): functional
One experiment relates to Nakaseomyces glabratus. The experiment can be described thus: Antifungal activity against Candida glabrata 537 after 24 hrs by serial dilution method. The following applies: Nakaseomyces glabratus, 537, 24 h.
Another experiment has as its system Aspergillus fumigatus. The experiment can be described thus: Antifungal activity against Aspergillus fumigatus 07544 after 7 days by serial dilution method. The following applies: Aspergillus fumigatus, 07544, 168 h.
The test system of the next experiment is Candida albicans. The experiment is described as follows: Antifungal activity against fluconazole-sensitive Candida albicans SC5314 after 24 hrs by serial dilution method. Conditions: SC5314, 24 h.
The next experiment has as its system Candida parapsilosis. The experiment is described as follows: Antifungal activity against Candida parapsilosis ATCC 22019 after 24 hrs by serial dilution method. The following applies: Lodderomyces parapsilosis, ATCC 22019, 24 h.
The next experiment relates to Nannizzia gypsea. The experiment is described as follows: Antifungal activity against Microsporum gypseum Cmccfmza after 7 days by serial dilution method. Conditions: 168 h.
Another experiment relates to Cryptococcus neoformans. The experiment can be described thus: Antifungal activity against Cryptococcus neoformans 32609 after 72 hrs by serial dilution method. Conditions: Cryptococcus neoformans, 32609, 72 h.
Another experiment deals with Trichophyton rubrum. The experiment can be described thus: Antifungal activity against Trichophyton rubrum Cmccftla after 7 days by serial dilution method. The following applies: 168 h.
The test system of another experiment is Pichia kudriavzevii. The experiment can be described thus: Antifungal activity against Candida krusei 0710397 after 7 days by serial dilution method. Conditions: Pichia kudriavzevii, 0710397, 168 h.
A further experiment relates to Candida tropicalis. The experiment can be described thus: Antifungal activity against Candida tropicalis after 7 days by serial dilution method. Conditions: 168 h.

Consider `CN1CCc2c(c3cc(Cl)ccc3n2C(=O)c2cccc(Cl)c2)C1`, for which the MIC80 in the experiment on Nakaseomyces glabratus was 32 µg/mL (≈ 89.1 µM); against Aspergillus fumigatus, greater than 64 µg/mL; against Candida albicans, greater than 64 µg/mL; in the experiment on Candida parapsilosis it was 64 µg/mL (≈ 178 µM); in the experiment with Nannizzia gypsea it was greater than 64 µg/mL; against Cryptococcus neoformans, 32 µg/mL (≈ 89.1 µM). The MIC80 against Trichophyton rubrum is greater than 64 µg/mL.
For the molecule `Fc1ccc2c(c1)c1c(n2CCCOc2ccccc2Cl)CCNC1`, the MIC80 in the experiment with Pichia kudriavzevii was determined as 64 µg/mL (≈ 178 µM); in the experiment on Candida albicans, 32 µg/mL (≈ 89.2 µM); in the experiment on Candida parapsilosis it was 64 µg/mL (≈ 178 µM); against Nannizzia gypsea, 16 µg/mL (≈ 44.6 µM); in the experiment with Cryptococcus neoformans, 16 µg/mL (≈ 44.6 µM); against Candida tropicalis it was 64 µg/mL (≈ 178 µM). In the experiment on Trichophyton rubrum, the MIC80 is 32 µg/mL (≈ 89.2 µM).
For the molecule `CN1CCc2c(c3cc(Cl)ccc3n2C(=O)c2ccc(Cl)cc2)C1`, the MIC80 is 32 µg/mL (≈ 89.1 µM) in the experiment with Nakaseomyces glabratus; greater than 64 µg/mL in the experiment with Aspergillus fumigatus; greater than 64 µg/mL against Candida albicans; 64 µg/mL (≈ 178 µM) against Candida parapsilosis; greater than 64 µg/mL in the experiment on Nannizzia gypsea; 32 µg/mL (≈ 89.1 µM) against Cryptococcus neoformans. The MIC80 against Trichophyton rubrum was found to be 32 µg/mL (≈ 89.1 µM).
As to `Fc1ccc(OCCCn2c3c(c4cc(F)ccc42)CNCC3)cc1`, the MIC80 worked out at 4 µg/mL (≈ 11.7 µM) in the experiment with Pichia kudriavzevii; 8 µg/mL (≈ 23.4 µM) in the experiment with Candida albicans; 16 µg/mL (≈ 46.7 µM) with Candida parapsilosis; 8 µg/mL (≈ 23.4 µM) against Nannizzia gypsea; 8 µg/mL (≈ 23.4 µM) in the experiment on Cryptococcus neoformans; 16 µg/mL (≈ 46.7 µM) against Candida tropicalis. In addition, the MIC80 against Trichophyton rubrum came out at 8 µg/mL (≈ 23.4 µM).
Consider `Fc1ccc2c(c1)c1c(n2CCCOc2ccc(Br)cc2)CCNC1`, for which the MIC80 against Pichia kudriavzevii worked out at 4 µg/mL (≈ 9.92 µM); with Candida albicans, 8 µg/mL (≈ 19.8 µM); against Candida parapsilosis, 64 µg/mL (≈ 159 µM); in the experiment on Nannizzia gypsea, 2 µg/mL (≈ 4.96 µM); in the experiment on Cryptococcus neoformans, 4 µg/mL (≈ 9.92 µM); against Candida tropicalis, 16 µg/mL (≈ 39.7 µM). The MIC80 against Trichophyton rubrum came out at 8 µg/mL (≈ 19.8 µM).
On to `Fc1ccc2c(c1)c1c(n2CCCOc2ccccc2)CCNC1`, for which the MIC80 against Pichia kudriavzevii was 16 µg/mL (≈ 49.3 µM); against Candida albicans, 8 µg/mL (≈ 24.7 µM); with Candida parapsilosis, greater than 64 µg/mL; against Nannizzia gypsea, 4 µg/mL (≈ 12.3 µM); with Cryptococcus neoformans, 8 µg/mL (≈ 24.7 µM); in the experiment with Candida tropicalis, 64 µg/mL (≈ 197 µM). The same molecule registered an MIC80 in the experiment with Trichophyton rubrum of 8 µg/mL (≈ 24.7 µM).
For the molecule `Fc1ccc(OCCCCCn2c3c(c4cc(F)ccc42)CNCC3)cc1`, the MIC80 was found to be 4 µg/mL (≈ 10.8 µM) in the experiment on Pichia kudriavzevii; 16 µg/mL (≈ 43.2 µM) in the experiment with Candida albicans; 16 µg/mL (≈ 43.2 µM) in the experiment with Candida parapsilosis; 8 µg/mL (≈ 21.6 µM) against Nannizzia gypsea; 16 µg/mL (≈ 43.2 µM) in the experiment on Cryptococcus neoformans; 4 µg/mL (≈ 10.8 µM) against Candida tropicalis. Also, the MIC80 against Trichophyton rubrum was found to be 32 µg/mL (≈ 86.4 µM).
Consider `CC(C)(C)c1ccc(OCCCn2c3c(c4cc(F)ccc42)CNCC3)cc1`, for which the MIC80 against Pichia kudriavzevii was determined as 16 µg/mL (≈ 42 µM); against Candida albicans, 8 µg/mL (≈ 21 µM); in the experiment with Candida parapsilosis, 4 µg/mL (≈ 10.5 µM); in the experiment on Nannizzia gypsea, 4 µg/mL (≈ 10.5 µM); against Cryptococcus neoformans, 8 µg/mL (≈ 21 µM); with Candida tropicalis, 4 µg/mL (≈ 10.5 µM). This molecule also returned an MIC80 in the experiment with Trichophyton rubrum of 4 µg/mL (≈ 10.5 µM).
Regarding `Cc1ccccc1OCCCn1c2c(c3cc(F)ccc31)CNCC2`, the MIC80 against Pichia kudriavzevii is 16 µg/mL (≈ 47.3 µM); in the experiment with Candida albicans it was 4 µg/mL (≈ 11.8 µM); with Candida parapsilosis, 16 µg/mL (≈ 47.3 µM); with Nannizzia gypsea, 4 µg/mL (≈ 11.8 µM); in the experiment with Cryptococcus neoformans it was 4 µg/mL (≈ 11.8 µM); in the experiment with Candida tropicalis, 64 µg/mL (≈ 189 µM). In the experiment with Trichophyton rubrum, this molecule displayed an MIC80 of 4 µg/mL (≈ 11.8 µM).
On to `Cc1cccc(OCCCn2c3c(c4cc(F)ccc42)CNCC3)c1`, for which the MIC80 came to 16 µg/mL (≈ 47.3 µM) against Pichia kudriavzevii; 8 µg/mL (≈ 23.6 µM) with Candida albicans; 4 µg/mL (≈ 11.8 µM) against Candida parapsilosis; 4 µg/mL (≈ 11.8 µM) against Nannizzia gypsea; 8 µg/mL (≈ 23.6 µM) in the experiment on Cryptococcus neoformans; 16 µg/mL (≈ 47.3 µM) with Candida tropicalis. In the experiment with Trichophyton rubrum, this molecule yielded an MIC80 of 4 µg/mL (≈ 11.8 µM).
`Fc1cc(F)c(OCCCn2c3c(c4cc(F)ccc42)CNCC3)c(F)c1`: the MIC80 came to 4 µg/mL (≈ 10.6 µM) with Pichia kudriavzevii; 8 µg/mL (≈ 21.1 µM) in the experiment on Candida albicans; 4 µg/mL (≈ 10.6 µM) in the experiment with Candida parapsilosis; 4 µg/mL (≈ 10.6 µM) in the experiment with Nannizzia gypsea; 4 µg/mL (≈ 10.6 µM) against Cryptococcus neoformans; 16 µg/mL (≈ 42.3 µM) against Candida tropicalis. In addition, the MIC80 against Trichophyton rubrum is 4 µg/mL (≈ 10.6 µM).
Turning to `Fc1ccc2c(c1)c1c(n2CCCOc2c(F)cccc2F)CCNC1`, the MIC80 with Pichia kudriavzevii came out at 4 µg/mL (≈ 11.1 µM); with Candida albicans it was 4 µg/mL (≈ 11.1 µM); in the experiment with Candida parapsilosis, 64 µg/mL (≈ 178 µM); in the experiment with Nannizzia gypsea it was 1 µg/mL (≈ 2.77 µM); against Cryptococcus neoformans, 8 µg/mL (≈ 22.2 µM); in the experiment on Candida tropicalis it was 16 µg/mL (≈ 44.4 µM). Moreover, the MIC80 against Trichophyton rubrum worked out at 2 µg/mL (≈ 5.55 µM).
For the molecule `Cc1ccc2c(c1)c1c(n2CCCOc2ccc(F)cc2)CCNC1`, the MIC80 with Pichia kudriavzevii came to 16 µg/mL (≈ 47.3 µM); in the experiment with Candida albicans, 4 µg/mL (≈ 11.8 µM); in the experiment on Candida parapsilosis, 16 µg/mL (≈ 47.3 µM); in the experiment with Nannizzia gypsea, 4 µg/mL (≈ 11.8 µM); in the experiment with Cryptococcus neoformans, 16 µg/mL (≈ 47.3 µM); in the experiment with Candida tropicalis, 64 µg/mL (≈ 189 µM). The MIC80 with Trichophyton rubrum was found to be 4 µg/mL (≈ 11.8 µM).
Turning to `COc1ccc(OCCCn2c3c(c4cc(F)ccc42)CNCC3)cc1`, the MIC80 in the experiment with Pichia kudriavzevii is 16 µg/mL (≈ 45.1 µM); in the experiment on Candida albicans it was 8 µg/mL (≈ 22.6 µM); in the experiment on Candida parapsilosis, greater than 64 µg/mL; against Nannizzia gypsea, 4 µg/mL (≈ 11.3 µM); against Cryptococcus neoformans, 8 µg/mL (≈ 22.6 µM); in the experiment on Candida tropicalis, greater than 64 µg/mL. Further, the MIC80 in the experiment on Trichophyton rubrum was determined as 8 µg/mL (≈ 22.6 µM).
As for `Clc1ccc2c(c1)c1c(n2CCCOc2cccc(Br)c2)CCNC1`, the MIC80 with Pichia kudriavzevii was found to be 4 µg/mL (≈ 9.53 µM); in the experiment on Candida albicans, 8 µg/mL (≈ 19.1 µM); with Candida parapsilosis it was 16 µg/mL (≈ 38.1 µM); against Nannizzia gypsea it was 16 µg/mL (≈ 38.1 µM); against Cryptococcus neoformans, 4 µg/mL (≈ 9.53 µM); against Candida tropicalis it was 16 µg/mL (≈ 38.1 µM). In the experiment on Trichophyton rubrum, this molecule showed an MIC80 of 16 µg/mL (≈ 38.1 µM).
